Experiments:
[1] = system: ovariectomized (OVX) rats; assay: OVX rat study: dynamic bone histomorphometry of tibial metaphysis and diaphysis; assay type: in vivo, Wistar rats
Description: (§1) A total of 264 Wistar female rats, ˜6 months old, were supplied by the Animal House at King Fahd Medical Research Center (KFMRC), KAU. Rats were housed in individual cages and maintained at 22° C. with a 12-h light/dark cycle. During the study period, rats were given standard rodent chow diet ad libitum (commercial rat cubes containing approximately 18% protein, 3% fat, 77% carbohydrate, and 2% of an inorganic-salt mixture with a vitamin supplement by weight, supplied by Grain Silos and Flour Mills Organization, Jeddah, Saudi Arabia) and water until the onset of intervention. Prior to surgery, rats were anesthetized with ketamine [(10% ketamine hydrochloride (80 mg/kg body weight), Cayman Chemical, Michigan, USA] and xylazine [(2% xylazine hydrochloride, 10 mg/kg body weight), Sigma-Aldrich Co., St. Louis, USA]. A single longitudinal skin incision was made on the dorsal midline at the level of the kidneys and both ovaries were ligated and removed to produce an ovariectomy in all OVX group animals. A SHAM-operated group, acting as a negative control for the effect of ovariectomy on bone parameters, underwent bilateral laparotomy, during which the ovaries were exposed but remained intact. […] The lycopene-supplemented groups were given lycopene (15, 30 and 45 mg/kg body weight per day) dissolved in corn oil by daily intra-gastric administration for the experimental period of 12 weeks. The SHAM, OVX and ALN control groups were given the same volume of corn oil without lycopene treatment. […] A 12-week randomized placebo-controlled study in order to examine the protective effects of lycopene supplementation on bone mass and fragility in OVX rats was concluded. Prior to surgery, body weight and bone mineral density (BMD) were obtained for all animals. Rats were randomized using a computer-generated randomization code into one of six groups: (1) sham-operated (SHAM; n=44); (2) ovariectomized control (OVX; n=44); (3) OVX lycopene-supplemented (15 mg/kg body weight per day) (n=44); (4) OVX lycopene-supplemented (30 mg/kg body weight per day) (n=44); (5) OVX lycopene-supplemented (45 mg/kg body weight per day) (n=44) and (6) OVX alendronate-treated (ALN) [2.0 μg/kg body weight per day subcutaneously (sc)] (n=44). Alendronate is an anti-resorptive agent for the treatment of osteoporosis and was used as a positive therapy control. […] All OVX groups were pair-fed with the SHAM group throughout the study to avoid the possible effects of ovariectomy-induced over-consumption and subsequent excessive weight gain. Treatment started 1 week after the surgery: this period of rest allowed the rats to recover from the stress associated with the surgery. In addition, after surgery, rats were administered Diclofenac sodium injection (20 mg/Kg body weight) to reduce the pain associated with the surgery. Rats were weighed and examined daily. Blood and urine samples were collected at baseline, during, and at the end of treatment for measurement of various BTMs and other analytes. In vivo dual energy x-ray absorptiometry (DXA) measurements were made for the bone mineral content (BMC) and BMD of the whole body, lumbar spine (L1-L4), and the right humerus, together with body composition at 12 weeks of treatment. One day following the post-test DXA assessments (at 12 weeks, 16 rats in each group), animals were euthanized by decapitation and right and left femurs were extracted for further biomechanical and histomorphometric analyses. Blood and urine samples were collected from all experimental groups to measure biochemical analytes and BTMs at baseline and 4, 8, and 12 weeks of treatment. Peripheral Quantitative CT (pQCT) scans were made of the proximal tibia metaphysis and the diaphysis. In vivo micro-computed tomographic (μCT) scans of the proximal tibia were obtained during the treatment period to monitor changes in bone mass and microarchitecture. […]

[2] = system: ovariectomized (OVX) rats; assay: OVX rat study: plasma GPx, SOD, CAT activities and urinary 8-OHdG; assay type: in vivo, Wistar rats
Description: Prior to surgery, rats were anesthetized with ketamine [(10% ketamine hydrochloride (80 mg/kg body weight), Cayman Chemical, Michigan, USA] and xylazine [(2% xylazine hydrochloride, 10 mg/kg body weight), Sigma-Aldrich Co., St. Louis, USA]. A single longitudinal skin incision was made on the dorsal midline at the level of the kidneys and both ovaries were ligated and removed to produce an ovariectomy in all OVX group animals. A SHAM-operated group, acting as a negative control for the effect of ovariectomy on bone parameters, underwent bilateral laparotomy, during which the ovaries were exposed but remained intact. […] The lycopene-supplemented groups were given lycopene (15, 30 and 45 mg/kg body weight per day) dissolved in corn oil by daily intra-gastric administration for the experimental period of 12 weeks. The SHAM, OVX and ALN control groups were given the same volume of corn oil without lycopene treatment. […] Prior to surgery, body weight and bone mineral density (BMD) were obtained for all animals. […] Alendronate is an anti-resorptive agent for the treatment of osteoporosis and was used as a positive therapy control. […] All OVX groups were pair-fed with the SHAM group throughout the study to avoid the possible effects of ovariectomy-induced over-consumption and subsequent excessive weight gain. Treatment started 1 week after the surgery: this period of rest allowed the rats to recover from the stress associated with the surgery. In addition, after surgery, rats were administered Diclofenac sodium injection (20 mg/Kg body weight) to reduce the pain associated with the surgery. Rats were weighed and examined daily. Blood and urine samples were collected at baseline, during, and at the end of treatment for measurement of various BTMs and other analytes. […] Blood and urine samples were collected from all experimental groups to measure biochemical analytes and BTMs at baseline and 4, 8, and 12 weeks of treatment.

[3] = system: ovariectomized (OVX) rats; assay: OVX rat study: in vivo pQCT densitometry of tibia metaphysis; set-up: species or system Wistar rats; details: 12 weeks, versus OVX control, P<0.001
Description: (§2) A total of 264 Wistar female rats, ˜6 months old, were supplied by the Animal House at King Fahd Medical Research Center (KFMRC), KAU. Rats were housed in individual cages and maintained at 22° C. with a 12-h light/dark cycle. During the study period, rats were given standard rodent chow diet ad libitum (commercial rat cubes containing approximately 18% protein, 3% fat, 77% carbohydrate, and 2% of an inorganic-salt mixture with a vitamin supplement by weight, supplied by Grain Silos and Flour Mills Organization, Jeddah, Saudi Arabia) and water until the onset of intervention. Prior to surgery, rats were anesthetized with ketamine [(10% ketamine hydrochloride (80 mg/kg body weight), Cayman Chemical, Michigan, USA] and xylazine [(2% xylazine hydrochloride, 10 mg/kg body weight), Sigma-Aldrich Co., St. Louis, USA]. A single longitudinal skin incision was made on the dorsal midline at the level of the kidneys and both ovaries were ligated and removed to produce an ovariectomy in all OVX group animals. A SHAM-operated group, acting as a negative control for the effect of ovariectomy on bone parameters, underwent bilateral laparotomy, during which the ovaries were exposed but remained intact. […] Peripheral Quantitative CT (pQCT) scans were made of the proximal tibia metaphysis and the diaphysis. […]

[4] = system: ovariectomized (OVX) rats; assay: OVX rat study: ex vivo μCT analysis of tibial metaphysis and femur diaphysis; assay type: in vivo, Wistar rats
Description: as §1

[5] = system: ovariectomized (OVX) rats; assay: OVX rat study: biochemical bone turnover markers; assay type: in vivo, Wistar rats
Description: as §1, with “In addition, after surgery, rats were administered Diclofenac sodium injection (20 mg/Kg body weight) to reduce the pain associated with the surgery. Rats were weighed and examined daily. Blood and urine samples were collected at baseline, during, and at the end of treatment for measurement of various BTMs and other analytes. In vivo dual energy x-ray absorptiometry (DXA) measurements were made for the bone mineral content (BMC) and BMD of the whole body, lumbar spine (L1-L4), and the right humerus, together with body composition at 12 weeks of treatment. One day following the post-test DXA assessments (at 12 weeks, 16 rats in each group), animals were euthanized by decapitation and right and left femurs were extracted for further biomechanical and histomorphometric analyses. Blood and urine samples were collected from all experimental groups to measure biochemical analytes and BTMs at baseline and 4, 8, and 12 weeks of treatment.” left out, “diaphysis.” for “diaphysis. In vivo micro-computed tomographic (μCT) scans of the proximal tibia were obtained during the treatment period to monitor changes in bone mass and microarchitecture.”

[6] = system: ovariectomized (OVX) rats; assay: OVX rat study: body weight, uterine weight, body composition by DXA, organ findings; assay type: in vivo, Wistar rats; details: 12 weeks; for decrease in fat mass (body composition by DXA): higher dosages of lycopene
Description: as §1

[7] = system: ovariectomized (OVX) rats; assay: OVX rat study: in vivo DXA densitometry of lumbar spine and humerus; set-up: species or system Wistar rats; details: 12 weeks, versus OVX control
Description: as §2

[8] = system: ovariectomized (OVX) rats; assay: OVX rat study: ex vivo pQCT and biomechanical testing of lumbar spine and femur; assay type: in vivo, Wistar rats; details: 12 weeks
Description: as §1, with “One day following the post-test DXA assessments (at 12 weeks, 16 rats in each group), animals were euthanized by decapitation and right and left femurs were extracted for further biomechanical and histomorphometric analyses. Blood and urine samples were collected from all experimental groups to measure biochemical analytes and BTMs at baseline and 4, 8, and 12 weeks of treatment.” left out, “diaphysis.” for “diaphysis. In vivo micro-computed tomographic (μCT) scans of the proximal tibia were obtained during the treatment period to monitor changes in bone mass and microarchitecture.”

[9] = OVX rat study: serum and liver lycopene by HPLC; assay type: in vivo, Wistar rats
Description: A total of 264 Wistar female rats, ˜6 months old, were supplied by the Animal House at King Fahd Medical Research Center (KFMRC), KAU. Rats were housed in individual cages and maintained at 22° C. with a 12-h light/dark cycle. During the study period, rats were given standard rodent chow diet ad libitum (commercial rat cubes containing approximately 18% protein, 3% fat, 77% carbohydrate, and 2% of an inorganic-salt mixture with a vitamin supplement by weight, supplied by Grain Silos and Flour Mills Organization, Jeddah, Saudi Arabia) and water until the onset of intervention. Prior to surgery, rats were anesthetized with ketamine [(10% ketamine hydrochloride (80 mg/kg body weight), Cayman Chemical, Michigan, USA] and xylazine [(2% xylazine hydrochloride, 10 mg/kg body weight), Sigma-Aldrich Co., St. Louis, USA]. A single longitudinal skin incision was made on the dorsal midline at the level of the kidneys and both ovaries were ligated and removed to produce an ovariectomy in all OVX group animals. A SHAM-operated group, acting as a negative control for the effect of ovariectomy on bone parameters, underwent bilateral laparotomy, during which the ovaries were exposed but remained intact. […] The lycopene-supplemented groups were given lycopene (15, 30 and 45 mg/kg body weight per day) dissolved in corn oil by daily intra-gastric administration for the experimental period of 12 weeks. The SHAM, OVX and ALN control groups were given the same volume of corn oil without lycopene treatment. […] A 12-week randomized placebo-controlled study in order to examine the protective effects of lycopene supplementation on bone mass and fragility in OVX rats was concluded. Prior to surgery, body weight and bone mineral density (BMD) were obtained for all animals. […] Peripheral Quantitative CT (pQCT) scans were made of the proximal tibia metaphysis and the diaphysis. […]

[10] = system: ovariectomized (OVX) rats; assay: OVX rat study: serum minerals, enzymes and hormones; assay type: in vivo, Wistar rats
Description: as §1, with “In addition, after surgery, rats were administered Diclofenac sodium injection (20 mg/Kg body weight) to reduce the pain associated with the surgery. Rats were weighed and examined daily. Blood and urine samples were collected at baseline, during, and at the end of treatment for measurement of various BTMs and other analytes. In vivo dual energy x-ray absorptiometry (DXA) measurements were made for the bone mineral content (BMC) and BMD of the whole body, lumbar spine (L1-L4), and the right humerus, together with body composition at 12 weeks of treatment. One day following the post-test DXA assessments (at 12 weeks, 16 rats in each group), animals were euthanized by decapitation and right and left femurs were extracted for further biomechanical and histomorphometric analyses. Blood and urine samples were collected from all experimental groups to measure biochemical analytes and BTMs at baseline and 4, 8, and 12 weeks of treatment.” left out, “diaphysis.” for “diaphysis. In vivo micro-computed tomographic (μCT) scans of the proximal tibia were obtained during the treatment period to monitor changes in bone mass and microarchitecture.”

[11] = lycopene 15-45 mg/kg/day, 12 weeks, range over doses
[12] = 12 weeks, lycopene, ALN 2.0 μg/kg/day, P<0.001

## CC(C)=CCC/C(C)=C/C=C/C(C)=C/C=C/C(C)=C/C=C/C=C(C)/C=C/C=C(C)/C=C/C=C(\C)CCC=C(C)C [lycopene]
[1]; OVX rats, lycopene, P<0.001
  osteoclast surface (Oc.S/BS) and osteoclast number (N.Oc/BS): significant decreases
[1]; OVX rats, lycopene, tibial metaphysis
  bone formation parameters (Ob.S/BS, MS/BS, BFR/BS, BFR/BV): prevented OVX-induced increases
[1]; [11]
  increase in BV/TV, tibial metaphysis (histomorphometry), compared with OVX control: 27.1-92.2%
  increase in Tb.N, tibial metaphysis (histomorphometry), compared with OVX control: 9.2-72.9%
[1]; lycopene greater than 15 mg/kg body weight per day, tibial diaphysis
  OVX-related increases in endocortical bone turnover formation (Ec.L.Pm/Ec.Pm, Ec MAR, Ec.BFR/BS): completely prevented
[1]; lycopene, except at 45 mg/kg body weight per day
  bone dynamics on the periosteal surface: positively affected
[2]; after lycopene treatment
  plasma GPx, CAT and SOD activities: increased
[2]; lycopene 15-45 mg/kg/day, P<0.001
  increase in plasma GPx activity compared to the OVX control: 30.6-57.2%
[2]; lycopene, dose-dependent manner, P<0.001
  urinary 8-OHdG levels: significantly decreased
[3]
  OVX-induced bone loss (total and trabecular BMD, proximal tibia, pQCT): significantly prevented
[4]; [12]
  decrease in Tb.Sp, tibia metaphysis (μCT), compared with OVX group: 46.8%
  increase in BV/TV, tibia metaphysis (μCT), compared with OVX group: 123.9%
  increase in Tb.N, tibia metaphysis (μCT), compared with OVX group: 52.8%
[4]; 12 weeks, lycopene, P<0.001
  increase in Tb.Th, tibia metaphysis (μCT), compared with OVX group: 78.4%
[4]; OVX rats, 12 weeks
  relative bone volume (BV/TV) of the femur diaphysis (μCT): nor lycopene or ALN treatment had significant effects
[4]; lycopene 30 and 45 mg/kg/day, ALN, versus SHAM and OVX groups
  femoral cortical values for Ct.Th and Ct.Po (μCT): improved
[5]; lycopene 30 and 45 mg/kg per day, P<0.001
  s-CTX and u-DPD levels compared to OVX control: significantly decreased
[5]; lycopene 30 or 45 mg/kg per day, weeks 8 and 12, P<0.001
  s-OC and s-PINP levels compared with OVX control: significant decreases
[6]; OVX rats, first value (presumably 30 mg/kg/day)
  decrease in fat mass (body composition by DXA): 8.9%
[6]; OVX rats, second value (presumably 45 mg/kg/day)
  decrease in fat mass (body composition by DXA): 16.4%
[6]; OVX rats, lycopene 15, 30, 45 mg/kg/day oral
  final body weight, body weight gain, or food intake: did not significantly influence
[6]; OVX rats, lycopene 30 and 45 mg/kg body weight per day
  uterine weight compared to OVX alone: significantly increased
[6]; OVX rats, lycopene treatment
  OVX-induced body weight gain and fat accumulation: prevented
[6]; lycopene-treated OVX rats
  degeneration or hypertrophy of internal organs, including muscle and bone: No degeneration or hypertrophy
[7]
  OVX-induced bone loss (BMC and BMD, lumbar spine and humerus, DXA): significantly prevented
[8]; lycopene particularly 45 mg/kg/day, alendronate 2.0 μg/kg/day
  OVX-induced decrease in cortical thickness: prevented the decrease
[8]; lycopene particularly 30 and 45 mg/kg/day, ALN 2.0 μg/kg/day, P<0.05
  lumbar spine biomechanical / bone strength parameters: improved
[8]; lycopene, values comparable to SHAM
  effects of OVX on bone strength parameters in the femur diaphysis: prevented the negative effects
[9]; 30 and 45 mg/kg body weight per day groups
  Liver lycopene levels versus 15 mg/kg per day group: significantly higher
[9]; female, Wistar, rat, serum, 45 mg/kg/day, OVX rats, at 12 weeks, 45 mg/kg body weight per day oral, read-out: Serum lycopene levels
  concentration at 12 weeks: 71.5 ± 4.65 nM
[9]; rats treated with lycopene, dose-dependent fashion
  lycopene in serum and livers: detected
[10]; OVX lycopene-treated groups, dose-dependent, P<0.001
  serum E2: significantly increased
[10]; OVX rats, lycopene treatment
  elevated serum FSH and LH levels: attenuated
[10]; OVX rats, lycopene 45 mg/kg/day, ALN 2.0 μg/kg/day sc, P<0.001
  serum PTH values versus other groups: significantly higher

Source: patent publication US9956181B2, “Composition of nanoformulated lycopene and method of using the composition” (priority 2015, dated 2018)
